The target of test [1] is T1, Recombinant barley α-amylase isozyme 1 (AMY1) (Hordeum vulgare, UniProt P00693).
T1 construct: made in house
The test can be described thus: Inhibition of barley α-amylase isozyme 1 activity towards DP17 amylose. In kind it is biochemical. The text has this:
(§1) Porcine pancreatic α-amylase (PPA) and bovine serum albumin (BSA) were purchased from Sigma. Amylose EX-1 (DP17; average degree of polymerization 17) was purchased from Hayashibara Chemical Laboratories (Okayama, Japan). Recombinant barley α-amylase isozyme 1 (AMY1) was produced and purified as described.^23 An aliquot of the porcine pancreatic x-amylase (PPA) crystalline suspension (in ammonium sulfate) was dialyzed extensively against the assay buffer without BSA. The enzyme concentration was determined by aid of amino acid analysis as determined using an LKB model Alpha Plus amino acid analyzer. […] Six different final inhibitor concentrations were used in the range 1 μM-5 mM. The inhibitor was pre-incubated with enzyme for 5 min at 37° C. before addition of substrate.

Test [2] has as its target T2, porcine pancreatic α-amylase (PPA) (Sus scrofa, UniProt P00690).
T2 construct: purchased Sigma
T2 sequence (P00690 16-511): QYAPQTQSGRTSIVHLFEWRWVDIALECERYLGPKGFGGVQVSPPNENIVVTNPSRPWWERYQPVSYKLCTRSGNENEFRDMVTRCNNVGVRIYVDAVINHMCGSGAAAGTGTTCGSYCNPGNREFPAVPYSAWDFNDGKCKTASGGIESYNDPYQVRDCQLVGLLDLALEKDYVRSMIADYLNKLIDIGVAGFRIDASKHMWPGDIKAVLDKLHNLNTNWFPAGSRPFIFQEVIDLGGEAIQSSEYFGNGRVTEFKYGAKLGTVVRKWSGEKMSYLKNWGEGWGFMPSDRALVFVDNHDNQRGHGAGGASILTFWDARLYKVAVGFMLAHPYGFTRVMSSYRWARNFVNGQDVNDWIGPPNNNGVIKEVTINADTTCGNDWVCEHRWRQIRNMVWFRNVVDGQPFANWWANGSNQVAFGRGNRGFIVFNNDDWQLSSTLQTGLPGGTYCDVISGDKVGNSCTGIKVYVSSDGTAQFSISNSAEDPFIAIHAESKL
The test can be described thus: Inhibition of porcine pancreatic α-amylase activity towards DP17 amylose. In kind it is biochemical.
From the text: as §1

Test [3] deals with T3, glucoamylase G2 form from Aspergillus niger (Aspergillus niger, UniProt P69328).
T3 construct: purchased Novo Nordisk, Bagsvaerd, Denmark
The test can be described thus: Inhibition of glucoamylase G2-catalyzed hydrolysis of maltose. In kind it is biochemical. As to the method: The glucoamylase G2 form from Aspergillus niger was purified from a commercial enzyme (Novo Nordisk, Bagsvaerd, Denmark) as described.^19,20 The initial rates of glucoamylase G2-catalyzed hydrolysis of maltose was tested with 1 mM maltose as substrate in 0.1 M sodium acetate pH 4.5 at 45° C. using an enzyme concentration of 7.0×10^−8 M and five inhibitor concentrations in the range 1 μm-5 mM. The effect of the inhibition on rates of substrate hydrolysis were compared for the different compounds.

For test [4], the target named is T4, Maltase Glucoamylase (MGA) (Homo sapiens, UniProt O43451). As to the kind of experiment: Inhibition of recombinant human maltase glucoamylase (MGA), maltose substrate, glucose oxidase readout. The conditions noted are these: for Ki: maltose substrate, 100 mM MES buffer pH 6.5, 37° C., read-out: Ki value against recombinant human maltase glucoamylase (MGA); for IC50: read-out: IC50 value against recombinant human MGA. In kind it is biochemical. The procedure:
Enzyme Activity Assay. Analysis of MGA inhibition was performed using maltose as the substrate, and measuring the release of glucose. Reactions were carried out in 100 mM MES buffer pH 6.5 at 37° C. for 15 min. The reaction was stopped by boiling for 3 min. 20 μL aliquots were taken and added to […] of glucose oxidase assay reagent (Sigma) in a 96-well plate. Reactions were developed for 1 hour and absorbance was measured at 450 nm to determine the amount of glucose produced by MGA activity in the reaction. One unit of activity is defined as the hydrolysis of one […] of maltose per minute. All reactions were performed in triplicate and absorbance measurements were averaged to give a final result.
The program GraFit 4.0.14 was used to fit the data to the Michaelis-Menten equation and estimate the kinetic parameters, Km and Vmax, of the enzyme. Ki values for each inhibitor were determined by measuring the rate of maltose hydrolysis by MGA at varying inhibitor concentrations. Data were plotted in Lineweaver-Burk plots (1/rate vs. 1/[substrate]) and Ki values were determined by the equation Ki=Km[I]/(Vmax)m−Km, where “m” is the slope of the line. The Ki reported for each inhibitor was estimated by averaging the Ki values obtained from each of the different inhibitor concentrations.
Target sequence in this assay (O43451 87-954 limits assumed): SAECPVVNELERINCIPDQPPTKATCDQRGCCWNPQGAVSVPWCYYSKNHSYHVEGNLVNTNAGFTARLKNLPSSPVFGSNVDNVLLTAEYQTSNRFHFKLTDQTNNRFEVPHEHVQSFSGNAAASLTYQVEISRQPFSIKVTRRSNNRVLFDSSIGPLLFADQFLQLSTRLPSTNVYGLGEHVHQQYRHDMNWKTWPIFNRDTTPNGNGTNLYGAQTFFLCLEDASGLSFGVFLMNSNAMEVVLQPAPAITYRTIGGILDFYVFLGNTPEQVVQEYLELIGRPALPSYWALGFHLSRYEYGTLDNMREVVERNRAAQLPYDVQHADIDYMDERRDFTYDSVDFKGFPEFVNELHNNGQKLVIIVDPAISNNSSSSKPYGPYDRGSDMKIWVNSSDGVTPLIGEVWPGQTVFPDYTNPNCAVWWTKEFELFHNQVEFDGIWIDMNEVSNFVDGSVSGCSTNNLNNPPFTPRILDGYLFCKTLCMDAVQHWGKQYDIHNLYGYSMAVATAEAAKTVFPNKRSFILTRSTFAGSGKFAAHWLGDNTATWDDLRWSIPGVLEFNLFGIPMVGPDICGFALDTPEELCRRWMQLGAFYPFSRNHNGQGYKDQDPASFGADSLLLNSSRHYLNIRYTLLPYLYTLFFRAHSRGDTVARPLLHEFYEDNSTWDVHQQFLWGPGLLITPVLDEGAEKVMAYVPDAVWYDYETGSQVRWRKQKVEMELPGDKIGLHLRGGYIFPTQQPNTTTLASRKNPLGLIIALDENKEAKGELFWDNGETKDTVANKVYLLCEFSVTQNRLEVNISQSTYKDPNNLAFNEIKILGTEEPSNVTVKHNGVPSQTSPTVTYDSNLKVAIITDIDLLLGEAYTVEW

Test [5] deals with T4, Maltase Glucoamylase (MGA). As to the kind of experiment: MGA activity in extracts of COS cells transfected with MGA5′ (maltase subunit) construct, maltose hydrolysis, glucose oxidase colorimetric assay. In kind it is biochemical. The arrangement: COS cells transfected with MGA5′ (maltase subunit clone 10) construct were used; expressed in transfected cells; host or cells: COS cells. The conditions noted are these: 5 μM concentration, COS cell extracts containing MGA; read-out: percent inhibition of the breakdown of maltose. As to the method: In the assays, COS cells transfected with MGA5′ (maltase subunit clone 10) construct were used. Activity measurements were performed with cell extracts containing MGA. Maltose hydrolysis was monitored by measurement of the glucose released by a glucose oxidase colorimetric assay. Inhibition of this hydrolysis was measured as a reduction in OD reading.
In practice, an OD reading in the absence of the inhibitor was recorded, followed by a reading in the presence of the inhibitor. The percent reduction in OD reading upon administering a candidate inhibitor (see Table 11) was then correlated with a percent inhibition for a given concentration.
Target sequence in this assay (O43451 356-737 limits assumed): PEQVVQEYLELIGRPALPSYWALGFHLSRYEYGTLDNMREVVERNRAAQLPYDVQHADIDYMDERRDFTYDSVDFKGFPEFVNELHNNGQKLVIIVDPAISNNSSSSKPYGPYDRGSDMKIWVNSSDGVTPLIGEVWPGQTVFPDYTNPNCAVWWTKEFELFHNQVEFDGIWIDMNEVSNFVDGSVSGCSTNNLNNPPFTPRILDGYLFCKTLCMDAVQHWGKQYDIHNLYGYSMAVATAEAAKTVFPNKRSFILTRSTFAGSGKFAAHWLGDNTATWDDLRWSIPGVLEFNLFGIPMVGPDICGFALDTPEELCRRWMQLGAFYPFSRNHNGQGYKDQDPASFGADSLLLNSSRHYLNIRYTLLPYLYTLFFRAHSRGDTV

Test [6] deals with Sprague-Dawley rats. As to the kind of experiment: In vivo maltose gavage in catheterized rats: plasma glucose and insulin. The arrangement: species or system rat. The conditions noted are these: maltose gavage 1000 mg/kg with 25 mg/kg drug. The procedure:
Five week old Sprague-Dawley rats were housed singly under a 12:12-h light-dark photoperiod and given free access to water and rat chow (Purina rodent chow). After one week of acclimation, chronic indwelling catheters were implanted.
Animals were anesthetized with a combination of Ketamine-Xylazine-Butorphanol (0.1 ml/100 g im). Analgesic (Butorphenol, 1 mg/kg sc) was administered following recovery from anesthesia and the following morning. Antibiotic was administered by one dose sc and in the drinking water for 4 days post-operative (Baytril, 5 mg/kg sc, Bayer, Toronto, Canada; Baytril, 50 mg/ml: 0.36 ml solution in 250 ml drinking water). A sterile catheter (Intramedic PE-50 with ˜3 cm beveled Silastic tip) was placed in the left carotid artery and the distal end of the catheter was tunneled subcutaneously, exteriorized, and anchored at the nape of the neck. The catheters were protected from chewing by a stainless steel tether connected to a swivel system which allowed free movement of the animal and easy access to the catheter by the investigator.
The animals were allowed to recover for 1 week. Experiments were performed on conscious, unrestrained animals that had been fasted overnight by removal of chow from the cage hoppers at 2100. At 0800 the following morning animals were weighed and Atropine (0.05 mg/kg sc) was administered as a […]. At baseline, animals were administered a bolus of maltose by oral gavage (1000 mg/kg body weight) with or without drug (25 mg/kg body weight for all agents). Blood samples (0.1 mL) were taken via the implanted carotid line at -15 and -5 min for the baseline and at 7, 15, 30, 60, 90, 120, 210, 300 min.
Blood samples were kept on ice in microcentrifuge tubes and then were centrifuged. The plasma was stored at −20° C. until it was assayed. Plasma volume was triple replaced with heparinized saline (10u/mL), but red blood cells were not reinfused. Plasma glucose was assayed with the glucose oxidase method (Trinder RAICHEM Division of Hemagen Diagnostics, Inc. San Diego, Calif.). Plasma insulin concentrations were measured by rat insulin ELISA (Crystal Chem INC, Downers Grove, Ill.). Six experiments were performed for each treatment (control, Blintol, Acarbose, Salacinol).
All data are presented as means±SE. The significance of changes in plasma glucose and insulin were tested by two-way repeated-measures analysis of variance and were performed with the Statistical Analysis System for Windows (version 6.3, SAS Institute, Cary, N.C.). AUCs were compared using unpaired t-tests.

Where [7] appears, read: read-out: Ki AMY1 (Barley α-amylase).
[8] abbreviates: read-out: Ki PPA (Porcine pancreatic α-amylase).

A word on the Ki: it is the equilibrium dissociation constant of an inhibitor or competing ligand from its target. What is called inhibition is the percentage by which the read-out fell short of the control. For orientation: IC50 means the concentration at which inhibition is half-maximal.

Where a name gives a salt, the structure may show the parent alone. Read-outs that look alike come from different tables or passages of the source.

T3 sequence (P69328 other isoform, or with tags, fused parts or gaps): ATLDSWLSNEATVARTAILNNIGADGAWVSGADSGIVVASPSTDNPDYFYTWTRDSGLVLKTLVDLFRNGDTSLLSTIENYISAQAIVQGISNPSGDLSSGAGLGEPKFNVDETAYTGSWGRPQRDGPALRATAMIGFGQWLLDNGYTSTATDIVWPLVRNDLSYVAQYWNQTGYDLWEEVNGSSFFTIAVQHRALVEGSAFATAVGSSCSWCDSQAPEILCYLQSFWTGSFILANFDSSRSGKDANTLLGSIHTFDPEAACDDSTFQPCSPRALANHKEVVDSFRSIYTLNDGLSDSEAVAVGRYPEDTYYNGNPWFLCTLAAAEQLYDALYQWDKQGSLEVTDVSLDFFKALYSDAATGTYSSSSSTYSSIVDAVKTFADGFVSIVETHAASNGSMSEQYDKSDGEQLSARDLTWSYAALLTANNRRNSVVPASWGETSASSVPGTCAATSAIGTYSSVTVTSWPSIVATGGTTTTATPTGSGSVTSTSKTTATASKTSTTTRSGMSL
T1 sequence (P00693 25-438): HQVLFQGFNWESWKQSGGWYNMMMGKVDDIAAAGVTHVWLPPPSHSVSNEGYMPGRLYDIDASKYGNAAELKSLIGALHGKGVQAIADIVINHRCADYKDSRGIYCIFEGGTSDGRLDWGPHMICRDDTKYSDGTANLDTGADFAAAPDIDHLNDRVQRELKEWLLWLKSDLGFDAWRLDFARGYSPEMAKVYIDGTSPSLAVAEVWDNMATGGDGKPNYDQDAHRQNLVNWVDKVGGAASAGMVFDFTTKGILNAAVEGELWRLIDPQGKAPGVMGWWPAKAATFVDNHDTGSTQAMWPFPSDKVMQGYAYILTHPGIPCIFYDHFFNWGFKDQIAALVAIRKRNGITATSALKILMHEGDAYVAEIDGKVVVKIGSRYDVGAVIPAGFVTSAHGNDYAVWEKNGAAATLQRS

Turning to `O=S(=O)([O-])O[C@H](CO)[C@@H](O)C[Se@+]1C[C@@H](O)[C@H](O)[C@H]1CO`, the inhibition constant (Ki) in test [1] is greater than 5000 µM; in test [2] it was greater than 5000 µM; in test [3] (read-out: Ki GA (Glucoamylase)), greater than 9000 µM.
Take `O=S(=O)([O-])O[C@H]([C@H](O)[C@@H](O)CO)[C@H](O)C[S@+]1C[C@@H](O)[C@H](O)[C@H]1CO` [Compound 95, 1,4-Dideoxy-1,4-[[2S,3R,4R,5S-2,4,5,6-tetrahydroxy-3-(sulfooxy)hexyl]episufonium-ylidene]-D-arabinitol]: in test [4], the “inhibitory activity against recombinant human MGA (in words)” value (from here on “inhibitory activity”) is listed as “active”.
Regarding `C[C@H]1O[C@H](O[C@H]2[C@H](O)[C@@H](O)[C@@H](O[C@H]3[C@H](O)[C@@H](O)C(O)O[C@@H]3CO)O[C@@H]2CO)[C@H](O)[C@@H](O)[C@@H]1N[C@H]1C=C(CO)[C@@H](O)[C@H](O)[C@H]1O` (stereo partly drawn) [Acarbose], in test [5], the inhibition at 5 µM was 4%. The “time at which plasma glucose returned to basal” value in test [6] is 90 min. Moreover, the “15 minute glucose excursion from basal” value in test [6] (mean ± SE, n=6) was 34.2 ± 3.5 mg/dL. The “decrease of the 90 minute insulin AUC” value in test [6] (versus Control) is on record as 49%.
For the compound `O=S(=O)(O)OC(C(O)CN1CC(O)C(O)C1CO)C(O)C(O)CO` (single isomer, unassigned) [Compound 193], in test [4], the Ki turned out to be 26 µM.
For the compound `O=S(=O)([O-])O[C@@H](CO)[C@H](O)C[S@+]1C[C@@H](O)[C@@H](O)[C@H]1CO` [Compound 233, 1,4-Dideoxy-1,4-[[(2S,3S)-2,4-dihydroxy-3-(sulfooxy)butyl]-(S)-episulfoniumylidene]-D-lyxitol Inner Salt], the “inhibitory activity” value in test [4] is recorded as “not effective inhibitors”.
Turning to `O=S(=O)(O)OC(C(O)CN1CC(O)C(O)C1CO)C(O)C(O)CO` (single isomer, unassigned) [Compound 255], in test [4], the IC50 was 30 µM.
In the case of `O=S(=O)([O-])O[C@@H](CO)[C@H](O)C[S@+]1C[C@H](O)[C@H](O)[C@H]1CO` [Compound 234, 1,4-Dideoxy-1,4-[[(2S,3S)-2,4-dihydroxy-3-(sulfooxy)butyl]-(R)-episulfoniumylidene]-D-ribitol Inner Salt], the “inhibitory activity” value in test [4] is on record as “not effective inhibitors”.
Same read-out and setting: with `O=S(=O)([O-])O[C@@H]([C@H](O)[C@@H](O)CO)[C@H](O)C[S@+]1C[C@@H](O)[C@H](O)[C@H]1CO` [Compound 96, 1,4-Dideoxy-1,4-[[2S,3S,4R,5S-2,4,5,6-tetrahydroxy-3-(sulfooxy)hexyl]episufonium-ylidene]-D-arabinitol] the entry was “active”; with `O=S(=O)([O-])OC(C(O)C[S+]1CC(O)C(O)C1CO)C(O)C(O)CO` [Compound 192, 1,4-Dideoxy-1,4-[[(2R,3S,4R,5R)-2,4,5,6-tetrahydroxy-3-(sulfooxy)hexyl]-episulfoniumylidene]-D-arabinitol Inner Salt], “not active”.
Regarding `OC1C[S+]2CCCC2[C@@H](O)C1O` (stereo partly drawn), the Ki in test [1] (setting [7]) is greater than 5000 µM; in test [2] (setting [8]), greater than 5000 µM; in test [3] (read-out: Ki GA (Glucoamylase)) it was 1320 µM.
`O=S(=O)([O-])O[C@@H]([C@H](O)C[S@+]1C[C@@H](O)[C@H](O)[C@H]1CO)[C@@H](O)CO` [Compound 94, 1,4-Dideoxy-1,4-[[2S,3R,4S-2,4,5-trihydroxy-3-(sulfooxy)pentyl]episufonium-ylidene]-D-arabinitol]: the “inhibitory activity” value in test [4] is “did not inhibit”.
As to `O=S(=O)([O-])O[C@H](CO)[C@@H](O)C[S@@+]1C[C@H](O)[C@@H](O)[C@@H]1CO`, the Ki in test [1] (setting [7]) was greater than 5000 µM; in test [2] (setting [8]), greater than 5000 µM; in test [3], 2170 µM.
Consider `O=S(=O)(O)O[C@@H](CO)[C@H](O)CN1C[C@H](O)[C@@H](O)[C@H]1CO`, for which the inhibition constant (Ki) in test [1] (setting [7]) is greater than 5000 µM; in test [2] (setting [8]), greater than 5000 µM; in test [3] (read-out: Ki GA (Glucoamylase)), greater than 30000 µM.
For the compound `O=S(=O)(O)OC(C(O)CN1CC(O)C(O)C1CO)C(O)C(O)CO` (single isomer, unassigned) [Compound 196], the inhibitory constant (Ki) in test [4] was found to be 5 µM.
The same measure, in the same setting: with `O=S(=O)([O-])O[C@@H]([C@H](O)CO)[C@H](O)C[S@+]1C[C@@H](O)[C@H](O)[C@H]1CO` [Compound 97, 1,4-Dideoxy-1,4-[[2S,3S,4R-2,4,5-trihydroxy-3-(sulfooxy)pentyl]episufonium-ylidene]-D-arabinitol] the figure was 0.17 µM.
On to `O=S(=O)([O-])O[C@@H](CO)[C@H](O)C[S@+]1C[C@H](O)[C@@H](O)[C@H]1CO`, for which the Ki in test [1] (setting [7]) is 109 µM; in test [2] (setting [8]), 52 µM; in test [3], greater than 5000 µM.
The corresponding values for `O=S(=O)([O-])O[C@H](CO)[C@@H](O)C[S@+]1C[C@@H](O)[C@H](O)[C@H]1CO` are greater than 5000 µM, greater than 5000 µM and 1060 µM.
Take `O=S(=O)(O)OC(C(O)CN1CC(O)C(O)C1CO)C(O)C(O)CO` (single isomer, unassigned) [Compound 252]: the IC50 in test [4] turned out to be 100 µM.
